{
  "source": "ChEMBL document CHEMBL1133079",
  "about": "“Synthesis and antibacterial activity of novel 6-O-substituted erythromycin A derivatives” (2000)",
  "format_in_all_cases": "functional",
  "key": {"[1]": {"test_system": "Staphylococcus aureus", "assay": "In vitro minimum inhibitory concentration against Staphylococcus aureus 6538P using standard agar dilution method"}, "[2]": {"test_system": "Staphylococcus aureus", "assay": "In vitro minimum inhibitory concentration against Staphylococcus aureus A5177."}, "[3]": {"test_system": "Streptococcus pneumoniae", "assay": "In vitro minimum inhibitory concentration against Streptococcus pneumoniae 5649."}, "[4]": {"test_system": "Streptococcus pneumoniae", "assay": "In vitro minimum inhibitory concentration against Streptococcus pneumoniae 5737."}, "[5]": {"test_system": "Streptococcus pyogenes", "assay": "In vitro minimum inhibitory concentration against Streptococcus pyogenes 930 using standard agar dilution method"}, "[6]": {"test_system": "Streptococcus pyogenes", "assay": "In vitro minimum inhibitory concentration against Streptococcus pyogenes EES61 using standard agar dilution method"}, "[7]": {"test_system": "Streptococcus pyogenes", "assay": "In vitro minimum inhibitory concentration against Streptococcus pyogenes PIU 2548 using standard agar dilution method"}, "[8]": {"test_system": "Haemophilus influenzae", "assay": "In vitro minimum inhibitory concentration against Haemophilus influenzae DILL using standard agar dilution method"}, "[9]": {"test_system": "Streptococcus pneumoniae", "assay": "In vitro minimum inhibitory concentration against Streptococcus pneumoniae ATCC 6303."}},
  "data": [
    {"compound": "CC[C@H]1OC(=O)[C@H](C)[C@@H](O[C@H]2C[C@@](C)(OC)[C@@H](O)[C@H](C)O2)[C@H](C)[C@@H](O[C@@H]2O[C@H](C)C[C@H](N(C)C)[C@H]2O)[C@@](C)(OCc2ccccc2)C[C@@H](C)C(=O)[C@H](C)[C@@H](O)[C@]1(C)O", "values": [
      {"measurement": "MIC", "setting": "[1]", "result": 1.56, "unit": "µg/mL"},
      {"measurement": "MIC", "setting": "[2]", "result": 12.5, "unit": "µg/mL"},
      {"measurement": "MIC", "setting": "[3]", "result": 16, "unit": "µg/mL"},
      {"measurement": "MIC", "setting": "[4]", "result": 64, "unit": "µg/mL"},
      {"measurement": "MIC", "setting": "[5]", "result": "> 128", "unit": "µg/mL"},
      {"measurement": "MIC", "setting": "[6]", "result": 0.06, "unit": "µg/mL"},
      {"measurement": "MIC", "setting": "[7]", "result": 16, "unit": "µg/mL"}
    ]},
    {"compound": "CC[C@H]1OC(=O)[C@H](C)[C@@H](O[C@H]2C[C@@](C)(OC)[C@@H](O)[C@H](C)O2)[C@H](C)[C@@H](O[C@@H]2O[C@H](C)C[C@H](N(C)C)[C@H]2O)[C@@](C)(OCC2CO2)C[C@@H](C)C(=O)[C@H](C)[C@@H](O)[C@]1(C)O", "note": "(stereo not given in full)", "values": [
      {"measurement": "MIC", "setting": "[8]", "result": "> 128", "unit": "µg/mL"},
      {"measurement": "MIC", "setting": "[1]", "result": 25, "unit": "µg/mL"},
      {"measurement": "MIC", "setting": "[2]", "result": 25, "unit": "µg/mL"},
      {"measurement": "MIC", "setting": "[5]", "result": "> 128", "unit": "µg/mL"},
      {"measurement": "MIC", "setting": "[6]", "result": 4, "unit": "µg/mL"},
      {"measurement": "MIC", "setting": "[7]", "result": "> 128", "unit": "µg/mL"}
    ]},
    {"compound": "C#CCO[C@@]1(C)C[C@@H](C)C(=O)[C@H](C)[C@@H](O)[C@](C)(O)[C@@H](CC)OC(=O)[C@H](C)[C@@H](O[C@H]2C[C@@](C)(OC)[C@@H](O)[C@H](C)O2)[C@H](C)[C@H]1O[C@@H]1O[C@H](C)C[C@H](N(C)C)[C@H]1O", "values": [
      {"measurement": "MIC", "setting": "[8]", "result": 16, "unit": "µg/mL"},
      {"measurement": "MIC", "setting": "[1]", "result": 0.2, "unit": "µg/mL"},
      {"measurement": "MIC", "setting": "[2]", "result": 12.5, "unit": "µg/mL"},
      {"measurement": "MIC", "setting": "[3]", "result": 16, "unit": "µg/mL"},
      {"measurement": "MIC", "setting": "[4]", "result": "> 128", "unit": "µg/mL"},
      {"measurement": "MIC", "setting": "[9]", "result": 0.06, "unit": "µg/mL"},
      {"measurement": "MIC", "setting": "[5]", "result": "> 128", "unit": "µg/mL"},
      {"measurement": "MIC", "setting": "[6]", "result": 0.03, "unit": "µg/mL"}
    ]},
    {"compound": "CC[C@H]1OC(=O)[C@H](C)[C@@H](O[C@H]2C[C@@](C)(OC)[C@@H](O)[C@H](C)O2)[C@H](C)[C@@H](O[C@@H]2O[C@H](C)C[C@H](N(C)C)[C@H]2O)[C@@](C)(OC/C=N/O)C[C@@H](C)C(=O)[C@H](C)[C@@H](O)[C@]1(C)O", "values": [
      {"measurement": "MIC", "setting": "[8]", "result": 16, "unit": "µg/mL"},
      {"measurement": "MIC", "setting": "[1]", "result": 0.2, "unit": "µg/mL"},
      {"measurement": "MIC", "setting": "[3]", "result": 32, "unit": "µg/mL"},
      {"measurement": "MIC", "setting": "[4]", "result": "> 128", "unit": "µg/mL"},
      {"measurement": "MIC", "setting": "[9]", "result": 0.06, "unit": "µg/mL"},
      {"measurement": "MIC", "setting": "[6]", "result": 0.015, "unit": "µg/mL"},
      {"measurement": "MIC", "setting": "[7]", "result": 64, "unit": "µg/mL"}
    ]},
    {"compound": "CC[C@H]1OC(=O)[C@H](C)[C@@H](O[C@H]2C[C@@](C)(OC)[C@@H](O)[C@H](C)O2)[C@H](C)[C@@H](O[C@@H]2O[C@H](C)C[C@H](N(C)C)[C@H]2O)[C@@](C)(OCC=O)C[C@@H](C)C(=O)[C@H](C)[C@@H](O)[C@]1(C)O", "values": [
      {"measurement": "MIC", "setting": "[8]", "result": 8, "unit": "µg/mL"},
      {"measurement": "MIC", "setting": "[1]", "result": 0.78, "unit": "µg/mL"},
      {"measurement": "MIC", "setting": "[2]", "result": 25, "unit": "µg/mL"},
      {"measurement": "MIC", "setting": "[3]", "result": 64, "unit": "µg/mL"},
      {"measurement": "MIC", "setting": "[4]", "result": "> 128", "unit": "µg/mL"},
      {"measurement": "MIC", "setting": "[9]", "result": 0.5, "unit": "µg/mL"},
      {"measurement": "MIC", "setting": "[5]", "result": "> 128", "unit": "µg/mL"},
      {"measurement": "MIC", "setting": "[6]", "result": 0.06, "unit": "µg/mL"},
      {"measurement": "MIC", "setting": "[7]", "result": 128, "unit": "µg/mL"}
    ]},
    {"compound": "CC[C@H]1OC(=O)[C@H](C)[C@@H](O[C@H]2C[C@@](C)(OC)[C@@H](O)[C@H](C)O2)[C@H](C)[C@@H](O[C@@H]2O[C@H](C)C[C@H](N(C)C)[C@H]2O)[C@@](C)(OCC(O)CNCc2ccccc2)C[C@@H](C)C(=O)[C@H](C)[C@@H](O)[C@]1(C)O", "note": "(stereo not given in full)", "values": [
      {"measurement": "MIC", "setting": "[8]", "result": 8, "unit": "µg/mL"},
      {"measurement": "MIC", "setting": "[1]", "result": 0.39, "unit": "µg/mL"},
      {"measurement": "MIC", "setting": "[2]", "result": 6.2, "unit": "µg/mL"},
      {"measurement": "MIC", "setting": "[3]", "result": 64, "unit": "µg/mL"},
      {"measurement": "MIC", "setting": "[4]", "result": "> 128", "unit": "µg/mL"},
      {"measurement": "MIC", "setting": "[9]", "result": 0.125, "unit": "µg/mL"},
      {"measurement": "MIC", "setting": "[6]", "result": 0.125, "unit": "µg/mL"}
    ]},
    {"compound": "C=CCO[C@@]1(C)C[C@@H](C)C(=O)[C@H](C)[C@@H](O)[C@](C)(O)[C@@H](CC)OC(=O)[C@H](C)[C@@H](O[C@H]2C[C@@](C)(OC)[C@@H](O)[C@H](C)O2)[C@H](C)[C@H]1O[C@@H]1O[C@H](C)C[C@H](N(C)C)[C@H]1O", "values": [
      {"measurement": "MIC", "setting": "[8]", "result": 32, "unit": "µg/mL"},
      {"measurement": "MIC", "setting": "[1]", "result": 0.78, "unit": "µg/mL"},
      {"measurement": "MIC", "setting": "[2]", "result": 12.5, "unit": "µg/mL"},
      {"measurement": "MIC", "setting": "[5]", "result": "> 128", "unit": "µg/mL"},
      {"measurement": "MIC", "setting": "[7]", "result": 64, "unit": "µg/mL"}
    ]},
    {"compound": "CC[C@H]1OC(=O)[C@H](C)[C@@H](O[C@H]2C[C@@](C)(OC)[C@@H](O)[C@H](C)O2)[C@H](C)[C@@H](O[C@@H]2O[C@H](C)C[C@H](N(C)C)[C@H]2O)[C@@](C)(OCC(C)=O)C[C@@H](C)C(=O)[C@H](C)[C@@H](O)[C@]1(C)O", "values": [
      {"measurement": "MIC", "setting": "[1]", "result": 3.1, "unit": "µg/mL"},
      {"measurement": "MIC", "setting": "[5]", "result": "> 128", "unit": "µg/mL"},
      {"measurement": "MIC", "setting": "[7]", "result": 128, "unit": "µg/mL"}
    ]},
    {"compound": "CC[C@H]1OC(=O)[C@H](C)[C@@H](O[C@H]2C[C@@](C)(OC)[C@@H](O)[C@H](C)O2)[C@H](C)[C@@H](O[C@@H]2O[C@H](C)C[C@H](N(C)C)[C@H]2O)[C@@](C)(OCC#N)C[C@@H](C)C(=O)[C@H](C)[C@@H](O)[C@]1(C)O", "values": [
      {"measurement": "MIC", "setting": "[8]", "result": 8, "unit": "µg/mL"},
      {"measurement": "MIC", "setting": "[1]", "result": 0.2, "unit": "µg/mL"},
      {"measurement": "MIC", "setting": "[3]", "result": 16, "unit": "µg/mL"},
      {"measurement": "MIC", "setting": "[4]", "result": "> 128", "unit": "µg/mL"},
      {"measurement": "MIC", "setting": "[9]", "result": 0.06, "unit": "µg/mL"},
      {"measurement": "MIC", "setting": "[5]", "result": "> 128", "unit": "µg/mL"},
      {"measurement": "MIC", "setting": "[6]", "result": 0.03, "unit": "µg/mL"},
      {"measurement": "MIC", "setting": "[7]", "result": 32, "unit": "µg/mL"}
    ]}
  ]
}
